{"source": "ChEMBL document CHEMBL6182875", "about": "“Cinerols L-R, Anti-inflammatory Meroterpenoids from the Marine Sponge Dysidea cinerea” (J Nat Prod, 2025)", "key": {"RAW264.7 [1]": {"system": "RAW264.7", "experiment": "Cytotoxicity against mouse RAW264.7 cells assessed as effect on cell viability at 2.5 to 20 uM measured after 24 hrs by CCK8 assay", "assay_type": "toxicity, cell-based", "details": "raw264.7, 24 h, dose 2.5-20 µM"}, "RAW264.7 [2]": {"system": "RAW264.7", "experiment": "Antiinflammatory activity against mouse RAW264.7 cells assessed as inhibition of LPS-induced TNF-alpha production pretreated for 2 hrs followed by LPS stimulation for 24 hrs by ELISA", "assay_type": "functional, cell-based", "details": "dose 2.5-20 µM, time 26.0 hrs"}, "RAW264.7 [3]": {"system": "RAW264.7", "experiment": "Antiinflammatory activity against mouse RAW264.7 cells assessed as inhibition of LPS-induced PGE2 production pretreated for 2 hrs followed by LPS stimulation for 24 hrs by ELISA", "assay_type": "functional, cell-based", "details": "dose 2.5-20 µM, time 26.0 hrs"}, "RAW264.7 [4]": {"system": "RAW264.7", "experiment": "Antiinflammatory activity against mouse RAW264.7 cells assessed as inhibition of LPS-induced IL-6 production pretreated for 2 hrs followed by LPS stimulation for 24 hrs by ELISA", "assay_type": "functional, cell-based", "details": "dose 2.5-20 µM, time 26.0 hrs"}, "RAW264.7 [5]": {"system": "RAW264.7", "experiment": "Antiinflammatory activity against mouse RAW264.7 cells assessed as inhibition of LPS-induced COX-2 protein expression at 2.5 to 5 uM pretreated for 1 hr followed by LPS stimulation for 25 mins by western blot analysis", "assay_type": "functional, cell-based", "details": "dose 2.5-5 µM, time 85.0 min"}, "RAW264.7 [6]": {"system": "RAW264.7", "experiment": "Inhibition of MAPK signaling pathway in mouse RAW264.7 cells assessed as decrease in JNK phosphorylation at 2.5 to 5 uM pretreated for 1 hr followed by LPS stimulation for 25 mins by western blot analysis", "assay_type": "cell-based", "details": "dose 2.5-5 µM, time 85.0 min"}, "RAW264.7 [7]": {"system": "RAW264.7", "experiment": "Inhibition of MAPK signaling pathway in mouse RAW264.7 cells assessed as decrease in ERK1/2 phosphorylation at 2.5 to 5 uM pretreated for 1 hr followed by LPS stimulation for 25 mins by western blot analysis", "assay_type": "cell-based", "details": "dose 2.5-5 µM, time 85.0 min"}, "RAW264.7 [8]": {"system": "RAW264.7", "experiment": "Inhibition of NF-kappaB signaling pathway in mouse RAW264.7 cells assessed as decrease in NF-kappaB p65 phosphorylation at Ser536 residue at 2.5 to 5 uM pretreated for 1 hr followed by LPS stimulation for 25 mins by western blot analysis", "assay_type": "cell-based", "details": "dose 2.5-5 µM, time 85.0 min"}, "RAW264.7 [9]": {"system": "RAW264.7", "experiment": "Inhibition of NF-kappaB signaling pathway in mouse RAW264.7 cells assessed as decrease in IkappaBalpha phosphorylation at Ser32 residue at 2.5 to 5 uM pretreated for 1 hr followed by LPS stimulation for 25 mins by western blot analysis", "assay_type": "cell-based", "details": "dose 2.5-5 µM, time 85.0 min"}, "RAW264.7 [10]": {"system": "RAW264.7", "experiment": "Inhibition of MAPK signaling pathway in mouse RAW264.7 cells assessed as decrease in p38 phosphorylation at 2.5 to 5 uM pretreated for 1 hr followed by LPS stimulation for 25 mins by western blot analysis", "assay_type": "cell-based", "details": "dose 2.5-5 µM, time 85.0 min"}, "RAW264.7 [11]": {"system": "RAW264.7", "experiment": "Antiinflammatory activity against mouse RAW264.7 cells assessed as inhibition of LPS-induced NO production pretreated for 2 hrs followed by LPS stimulation for 24 hrs by ELISA", "assay_type": "functional, cell-based", "details": "dose 2.5-20 µM, time 26.0 hrs"}}, "note": "Activity calls are given as the source filed them. The calls are words filed in the database; no cut-off is given here."}
{"smiles": "C[C@H]1CC[C@@]2(C)[C@@H](CC[C@@H](O)[C@@]2(C)O)[C@]1(C)Cc1cc(O)cc2nc3n(c12)CCC3", "values": [{"measurement": "Activity", "setting": "RAW264.7 [1]", "value": "Non-toxic"}]}
{"smiles": "CC1=CCC[C@H]2[C@](C)(CC3=CC(=O)C=C(NCCO)C3=O)[C@@H](C)CC[C@]12C", "values": [{"measurement": "Activity", "setting": "RAW264.7 [1]", "value": "Non-toxic"}]}
{"smiles": "CC1=CCC[C@H]2[C@](C)(CC3=CC(=O)C=C(N(C)CCO)C3=O)[C@@H](C)CC[C@]12C", "values": [{"measurement": "Activity", "setting": "RAW264.7 [1]", "value": "Non-toxic"}]}
{"smiles": "CC1=CCC[C@H]2[C@](C)(Cc3cc4c(cc3O)[n+](CCS(=O)(=O)[O-])c3n4CCC3)[C@@H](C)CC[C@]12C", "values": [{"measurement": "Activity", "setting": "RAW264.7 [1]", "value": "Non-toxic"}]}
{"smiles": "CC1=CCC[C@H]2[C@](C)(CC3=CC(=O)C(NCCO)=CC3=O)[C@@H](C)CC[C@]12C", "values": [{"measurement": "Activity", "setting": "RAW264.7 [1]", "value": "Non-toxic"}]}
{"smiles": "CC(=O)c1cc(O)cc(C[C@]2(C)[C@@H](C)CC[C@]3(C)C(C)=CCC[C@@H]23)c1O", "values": [{"measurement": "Activity", "setting": "RAW264.7 [1]", "value": "Non-toxic"}]}
{"smiles": "C=C1CCC[C@H]2[C@](C)(Cc3cc(O)cc(C(C)=O)c3O)[C@@H](C)CC[C@]12C", "values": [{"measurement": "Activity", "setting": "RAW264.7 [2]", "value": "Dose-dependent-effect"}, {"measurement": "Activity", "setting": "RAW264.7 [3]", "value": "Dose-dependent-effect"}, {"measurement": "Activity", "setting": "RAW264.7 [4]", "value": "Dose-dependent-effect"}, {"measurement": "Activity", "setting": "RAW264.7 [5]", "value": "Active"}, {"measurement": "inhibition", "setting": "RAW264.7 [6]", "value": "Active"}, {"measurement": "inhibition", "setting": "RAW264.7 [7]", "value": "Active"}, {"measurement": "Activity", "setting": "RAW264.7 [1]", "value": "Non-toxic"}, {"measurement": "inhibition", "setting": "RAW264.7 [8]", "value": "Active"}, {"measurement": "inhibition", "setting": "RAW264.7 [9]", "value": "Active"}, {"measurement": "inhibition", "setting": "RAW264.7 [10]", "value": "Active"}, {"measurement": "Activity", "setting": "RAW264.7 [11]", "value": "Dose-dependent-effect"}]}
